Data reported in US5234937A, “3,5-di-tertiary-butyl-4-hydroxphenyl oxazolyl methanones and related compounds as antiinflammatory agents” (Warner-Lambert Company, priority 1991, dated 1993).

What was measured:
5-Lipoxygenase = molecular target: T1, 5-Lipoxygenase (Rattus norvegicus, UniProt P12527); test: ARBL whole cell 5-lipoxygenase assay (LTB4 formation, RBL-1 cells); assay type: cell-based; settings: A23187 stimulated; for inhibition at 10 µM: read-out: ARBL Percent inhibition of LTB4 @ 10 μM
T1 construct: host or cells: RBL-1 (rat basophilic leukemia)
T1 sequence (P12527 1-673): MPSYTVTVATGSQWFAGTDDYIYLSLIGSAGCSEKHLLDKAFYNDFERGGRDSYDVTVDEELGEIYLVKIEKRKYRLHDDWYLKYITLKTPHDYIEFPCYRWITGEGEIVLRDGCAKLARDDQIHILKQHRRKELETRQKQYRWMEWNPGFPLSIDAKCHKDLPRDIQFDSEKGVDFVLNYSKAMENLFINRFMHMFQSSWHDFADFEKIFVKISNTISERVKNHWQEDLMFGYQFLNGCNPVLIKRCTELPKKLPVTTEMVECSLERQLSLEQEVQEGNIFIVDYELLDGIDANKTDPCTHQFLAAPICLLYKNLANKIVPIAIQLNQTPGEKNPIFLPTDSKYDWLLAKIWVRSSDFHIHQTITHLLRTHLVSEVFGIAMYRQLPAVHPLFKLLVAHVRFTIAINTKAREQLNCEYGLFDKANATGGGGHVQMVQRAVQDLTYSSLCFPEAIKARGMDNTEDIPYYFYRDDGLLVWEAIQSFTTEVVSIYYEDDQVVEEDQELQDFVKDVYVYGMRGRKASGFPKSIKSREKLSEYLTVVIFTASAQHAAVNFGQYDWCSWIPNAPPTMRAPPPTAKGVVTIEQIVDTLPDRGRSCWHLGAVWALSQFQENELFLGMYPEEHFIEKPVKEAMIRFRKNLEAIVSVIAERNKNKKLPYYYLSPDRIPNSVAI
Method: (§1) ARBL/ARBC Cell 5-Lipoxygenase and Cyclooxygenase Assays The rat basophilic leukemia cell line (RBL-1) was obtained from the American Type Culture Collection (Rockville, MD). Radioimmunoassay (RIA) kits of LTB4 and PGF2α were obtained from Amersham (Arlington Heights, IL) and Seragen (Boston, MA), respectively. RBL-1 cells are grown in suspension culture in Eagle's minimum essential medium supplemented with 12% fetal bovine serum at 37° C in an incubator supplied with air-5% carbon dioxide. Cells are harvested by centrifugation. They are washed with cold phosphate buffered saline pH 7.4 (PBS; NaCl, 7.1 g; Na2 HPO4, 1.15 g; KH2 PO4, 0.2 g; and KCl, 0.2 g/L). Cells are finally suspended in PBS containing 1.0 mM calcium at a density of 2×10^6 cells/mL. Cells are incubated with and without test agent (in DMSO) (1% DMSO is without effect on arachidonic acid metabolism) for 10 minutes at room temperature. Calcium ionophore A23187 (5 μM) is added and cells are incubated for 7 minutes at 37° C. The reaction is stopped by chilling the tubes on ice for 10 minutes. Cells are separated by centrifugation and the supernatant is stored at -20° C. Aliquots (100 μ L) are analyzed for LTB4 and PGF2α using radioimmunoassay kits as provided by the supplier. Table I contains biochemical data obtained from this whole cell assay as IC50 s which are calculated as the amount of test compound causing 50% inhibition or % of inhibition at the named micromoles (μM) of […] or PGF2α formation.

[1] = tested on: Carrageenan-induced rat foot paw edema; test: Carrageenan-induced rat foot paw edema 2 (CFE 2) assay; assay type: in vivo; settings: 3 mg/kg, dosed 1 hour before carrageenan, edema measured 5 hours after carrageenan
Method: Carraogenan-Induced Rat Foot Paw Edema 2 (CFE 2) Assay: Protocol
Carageenan solution (1% w/v) is prepared by dissolving 100 mg carrageenan (Marine Colloidal Div., Springfield, NJ) in 10 mL of sterile saline (0.9%) solution (Travenol). The solution is vortexed for 30 to 45 minutes. Animals are dosed with compound 1 hour before carrageenan challenge. Foot paw edema is induced by injecting 0.10 mL of the 1% carrageenan subcutaneously into the plantar portion of the right hind paw of each rat under light anesthesia. Initial foot paw volume is measured immediately following carrageenan challenge using mercury plethysmography (Buxco Electronics). Edema is measured 5 hours after carrageenan. The difference between the 5-hour and the initial paw volume is expressed as delta edema. The delta edema for each test group of animals is used to calculate the percent inhibition of edema achieved by the compound at the test dose compared with the vehicle control group. The data in Table I (the dose at which swelling is inhibited by the noted percent) is calculated by probit analysis for the dose at which percent inhibition occurs.

Cyclooxygenase = test: ARBC whole cell cyclooxygenase assay (PGF2α formation, RBL-1 cells); assay type: cell-based, rat; settings: A23187 stimulated
Method: as §1

Cc1cc(C(=O)c2cc(C(C)(C)C)c(O)c(C(C)(C)C)c2)no1 [Example 1, [3,5-Bis(1,1-dimethylethyl)-4-hydroxyphenyl](5-methyl-3-isoxazolyl)methanon]
IC50 (5-Lipoxygenase; LTB4 by RIA, read-out: ARBL IC50 for LTB4 inhibition): 830 nM | CFE percent inhibition of edema [1]: 37% | IC50 (Cyclooxygenase; PGF2α by RIA): 60 nM

CC(C)(C)c1cc(C(=O)c2nccs2)cc(C(C)(C)C)c1O [Example 4, [3,5-Bis(1,1 dimethylethyl)-4-hydroxyphenyl]-2-thiazolylmethanone]
inhibition at 10 µM (5-Lipoxygenase): 91% | ARBC Percent inhibition of PGF2α @ 10 μM (Cyclooxygenase): 91%

CON=C(c1cc(C(C)(C)C)c(O)c(C(C)(C)C)c1)c1cc(C)on1 [Example 14]
inhibition at 10 µM (5-Lipoxygenase): 100% | ARBC Percent inhibition of PGF2α @ 10 μM (Cyclooxygenase): 97%
